Source: ChEMBL document CHEMBL5036363, “Discovery and Lead Optimization of Benzene-1,4-disulfonamides as Oxidative Phosphorylation Inhibitors” (J Med Chem, 2022)
The source made the active and inactive calls. The rule behind the calls is not given here.

Assays:
[1] = Kinetic aqueous solubility of the compound by turbidimetric method; assay type: physicochemical; conditions: buffer
MIA PaCa-2 [2] = test: Cytotoxicity against human MIA PaCa-2 cells assessed as inhibition of cell growth incubated for 7 days in glucose-containing medium by MTT assay; assay type: functional, cell-based; conditions: MIA PaCa-2, 168 h
BXPC-3 = test: Cytotoxicity against human BXPC-3 cells assessed as inhibition of cell growth incubated for 7 days in glucose-containing medium by MTT assay; assay type: functional, cell-based; conditions: BXPC-3, 168 h
MIA PaCa-2 [3] = test: Cytotoxicity against human MIA PaCa-2 cells assessed as inhibition of cell growth incubated for 3 days in glucose-containing medium by MTT assay; assay type: functional, cell-based; conditions: MIA PaCa-2, 72 h
MIA PaCa-2 [4] = test: Cytotoxicity against human MIA PaCa-2 cells assessed as inhibition of cell growth incubated for 3 days in galactose-containing medium by MTT assay; assay type: functional, cell-based; conditions: MIA PaCa-2, 72 h
[5] = Microsomal stability in human liver microsomes assessed as half life at 10 uM measured upto 60 mins by LC-MS/MS analysis; assay type: ADME, Microsome; conditions: microsomes, 1 h, 10 µM
[6] = Microsomal stability in mouse liver microsomes assessed as half life at 10 uM measured upto 60 mins by LC-MS/MS analysis; assay type: ADME, Microsome; conditions: microsomes, 1 h, 10 µM
MIA PaCa-2 [7] = test: Inhibition of oxidative phosphorylation in human MIA PaCa-2 cells assessed as reduction in ATP production incubated for 24 hrs in glucose-containing medium by CellTiter-glo luminescence assay; assay type: functional, cell-based
[8] = Inhibition of oxidative phosphorylation in human MIA PaCa-2 cells assessed as reduction in ATP production incubated for 24 hrs in galactose-containing medium by CellTiter-glo luminescence assay; assay type: functional, cell-based; conditions: MIA PaCa-2, 24 h
[9] = Inhibition of oxidative phosphorylation complex I in human MIA PaCa-2 cells assessed as reduction in NAD+/NADH ratio incubated for 48 hrs by NAD/NADH-Glo assay; assay type: cell-based; conditions: MIA PaCa-2, 48 h
[10] = Cytotoxicity against human UM16 cells assessed as inhibition of cell growth; assay type: functional, cell-based
[11] = Drug metabolism in mouse liver microsomes assessed as formation of de-ethylated diethyl-sulfonamide moiety metabolite at 10 uM measured after 7 to 30 mins by LC-MS/MS analysis; assay type: ADME, Microsome; conditions: time 7-30 min
[12] = Drug metabolism in mouse liver microsomes assessed as formation of hydroxylated piperidine ring moiety metabolite at 10 uM measured after 7 to 30 mins by LC-MS/MS analysis; assay type: ADME, Microsome; conditions: time 7-30 min
MIA PaCa-2 [13] = test: Antitumor activity against human MIA PaCa-2 cells xenografted in C57BL/6 mouse syngeneic model assessed as tumor growth inhibition at 5 mg/kg, ip measured upto 28 days by digital caliper method; assay type: functional, organism-based; conditions: time day <=28
[14] = Toxicity in C57BL/6 mouse xenografted with human MIA PaCa-2 cells assessed as body weight loss at 5 mg/kg, ip measured twice a week for 28 days; assay type: organism-based; conditions: in vivo, 672 h, time 28 day
Homo sapiens = species on record: Homo sapiens; test: Inhibition of complex-I-dependent oxygen consumption in mitochondria of human PC-3 cells by luxcel-dye staining based MitoXpress method; assay type: functional, cell-based

Compound | IC50 (MIA PaCa-2 [2]) | IC50 (BXPC-3) | IC50 (MIA PaCa-2 [3]) | IC50 (MIA PaCa-2 [4]) | also measured
CCOC(=O)[C@@H]1CCCN(S(=O)(=O)c2ccc(S(=O)(=O)N(CC)CC)cc2)C1 | 0.4 µM | 0.6 µM | 0.09 µM | > 10 µM | solubility [1]: > 200 µM; t1/2 [5]: 0.64 min; t1/2 [6]: 0.7 min; inhibition (MIA PaCa-2 [7]): inactive; IC50 [8]: 0.119 µM; IC50 [9]: 0.312 µM; IC50 [10]: 0.31 µM
CCN(CC)S(=O)(=O)c1ccc(S(=O)(=O)N2CCC[C@@H](C(=O)N3CCN(c4nc(C(C)C)no4)CC3)C2)cc1 | 0.05 µM |  |  | > 10 µM | t1/2 [5]: 1.7 min; t1/2 [6]: 7.7 min; Drug metabolism [11]: Metabolite_Detected; Drug metabolism [12]: Metabolite_Detected; inhibition (MIA PaCa-2 [7]): inactive; IC50 [8]: 0.0307 µM; IC50 [9]: 0.0082 µM
CCN(CC)S(=O)(=O)c1ccc(S(=O)(=O)N2CCC[C@@H](C(=O)N[C@H]3CCN(C(=O)OC(C)(C)C)C3)C2)cc1 | 0.1 µM | 0.3 µM | 0.17 µM | > 10 µM | 
CCN(CC)S(=O)(=O)c1ccc(S(=O)(=O)N2CCC[C@@H](C(=O)N3CC4(CCN(C(=O)OC(C)(C)C)C4)C3)C2)cc1 | 0.19 µM | 0.9 µM | 1.3 µM | > 10 µM | 
CCOC(=O)N1CCC[C@H](S(=O)(=O)c2ccc(S(=O)(=O)N(CC)CC)cc2)C1 | > 30 µM | > 30 µM | > 10 µM | > 10 µM | 
CCOC(=O)C1CCCCN1S(=O)(=O)c1ccc(S(=O)(=O)N(CC)CC)cc1 (stereo not drawn) | 24.6 µM | 12.9 µM | > 3 µM | > 10 µM | 
CCOC(=O)[C@@H]1CCCN(S(=O)(=O)c2ccc(C(=O)N(CC)CC)cc2)C1 | 0.8 µM | 0.64 µM | 0.1 µM | > 10 µM | 
CCOC(=O)C1CN(S(=O)(=O)c2ccc(S(=O)(=O)N(CC)CC)cc2)C1 | 13.9 µM | 12.7 µM | 0.8 µM | > 10 µM | 
CCOC(=O)[C@@H]1CCCN(S(=O)(=O)c2ccc(S(=O)(=O)N(C)C)cc2)C1 | 0.9 µM | 1 µM | 0.3 µM | > 10 µM | 
CCN(CC)S(=O)(=O)c1ccc(S(=O)(=O)N2CCC[C@@H](C(=O)NC3CN(C(=O)NC(C)(C)C)C3)C2)cc1 | 3.4 µM | 10.1 µM | 1.4 µM | > 10 µM | 
CCOC(=O)[C@@H]1CCCN(S(=O)(=O)c2ccc(S(=N)(=O)N(CC)CC)cc2)C1 (stereo partly drawn) | 2.6 µM | 3.6 µM | 0.9 µM | > 10 µM | 
CC(C)c1noc(N2CCN(C(=O)[C@@H]3CCCN(S(=O)(=O)c4ccc(S(=O)(=O)C5CCC5)cc4)C3)CC2)n1 | 0.07 µM |  | 0.02 µM | > 10 µM | inhibition (MIA PaCa-2 [7]): inactive; IC50 [8]: 0.0426 µM; IC50 [9]: 0.016 µM; Activity (MIA PaCa-2 [13]): Active; Activity [14]: Non-Toxic
Cc1cc(-c2nc(-c3ccc(OC(F)(F)F)cc3)no2)nn1Cc1ccnc(N2CCN(C3CC3)CC2)c1 |  |  |  |  | IC50 (Homo sapiens): 0.01 µM
CCOC(=O)[C@@H]1CCCN(S(=O)(=O)c2ccc(S(=O)(=O)N(CC)CC)cc2C)C1 | 5.1 µM | 5.6 µM | 1.2 µM | > 10 µM | 
CCOC(=O)C1CCCN(S(=O)(=O)c2ccc(S(=O)(=O)N(CC)CC)cc2)C1 (racemic) |  |  |  |  | IC50 [10]: 0.58 µM
CCN(CC)S(=O)(=O)c1ccc(S(=O)(=O)N2CCC[C@@H](c3nc(C)no3)C2)cc1 | 4.1 µM | 2.9 µM | 0.7 µM | > 10 µM | 
CCN(CC)S(=O)(=O)c1ccc(S(=O)(=O)N2CCC[C@@H](C(=O)NC)C2)cc1 | 8.6 µM | 13.8 µM | 2 µM | > 10 µM | 
